Measurements as given in patent US8765733B2, “Amine substituted methanesulfonamide derivatives as vanilloid receptor ligands” (Gruenenthal GmbH, priority 2011, dated 2014).

Biological target: vanilloid receptor 1 (VR1/TRPV1 receptor) (Homo sapiens, UniProt Q8NER1)
Test: FLIPR functional assay (Ca2+ influx, capsaicin) on the vanilloid receptor 1
Format: cell-based
Settings: capsaicin (Cap) stimulus; for Ki: functional (f), Ki from IC50 by Cheng-Prusoff, read-out: (f) Ki (human being) [nM] Cap

Row | Compound | Ki [nM] | further results
1 | NS(=O)(=O)NCc1ccc(CCC(=O)NCc2ccc(C(F)(F)F)nc2N2CCCC2)cc1 [Example 56, 1-{[2-pyrrolidin-1-yl-6-(trifluoromethyl)pyridin-3-yl]methyl}-3-{4-[(sulfamoylamino)methyl]phenyl}propanamide] | 38 | –
2 | CC1CCN(c2nc(C(F)(F)F)ccc2CNC(=O)C(C)c2ccc(CNS(N)(=O)=O)cc2)CC1 (centres unmarked) [Example 58, N-((2-(4-methylpiperidin-1-yl)-6-(trifluoromethyl)pyridin-3-yl)methyl)-2-(4-((sulfamoylamino)methyl)phenyl)propanamide] | 2 | –
3 | CC1CCN(c2nc(C(F)(F)F)ccc2CNC(=O)Nc2ccc(CNS(N)(=O)=O)cc2)CC1 [Example 59, 1-{[2-(4-methylpiperidin-1-yl)-6-(trifluoromethyl)pyridin-3-yl]methyl}-3-{4-[(sulfamoylamino)methyl]phenyl}urea] | 1 | –
4 | NS(=O)(=O)NCc1ccc(NC(=O)NCc2ccc(C(F)(F)F)nc2N2CCCC2)cc1F [Example 60, 1-{3-fluoro-4-[(sulfamoylamino)methyl]phenyl}-3-{[2-pyrrolidin-1-yl-6-(trifluoromethyl)pyridin-3-yl]methyl}urea] | 20 | –
5 | CC1CCN(c2nc(C(F)(F)F)ccc2CNC(=O)Nc2ccc(CNS(N)(=O)=O)c(F)c2)CC1 [Example 61, 1-{3-fluoro-4-[(sulfamoylamino)methyl]phenyl}-3-{[2-(4-methylpiperidin-1-yl)/-6-(trifluoromethyl)pyridin-3-yl]methyl}urea] | 1 | –
6 | CC1CCN(c2nc(C(F)(F)F)ccc2CNC(=O)C(C)c2ccc(CN(C)S(C)(=O)=O)c(F)c2)CC1 (centres unmarked) [Example 63, 2-(3-fluoro-4-((N-methylmethylsulfonamido)methyl)phenyl)-N-((2-(4-methylpiperidin-1-yl)-6-(trifluoromethyl)pyridin-3-yl)methyl)propanamide] | 55 | –
7 | CC1CCN(c2nc(C(F)(F)F)ccc2CNC(=O)C(C)c2ccc(F)c(CNS(C)(=O)=O)c2)CC1 (centres unmarked) [Example 66, 2-(4-fluoro-3-(methylsulfonamidomethyl)phenyl)-N-((2-(4-methylpiperidin-1-yl)-6-(trifluoromethyl)pyridin-3-yl)methyl)propanamide] | – | inhibition at 5 µM (compound at 5 μM, read-out: inhibition (as a percentage) Cap, (human being)): 58%
8 | N-(2-fluoro-5-(3-((2-(4-methylpiperidin-1-yl)-6-(trifluoromethyl)pyridin-3-yl)methyl)ureido)benzyl)methanesulfonamide [Example 65] | – | inhibition (as a percentage) Cap, (human being) (compound at 5 μM): 12%@5 μM

The next lines start with results.

Row | Ki [nM] | Compound | further results
9 | 76 | CCS(=O)(=O)NCc1ccc(C(C)C(=O)NCc2ccc(C(F)(F)F)nc2N2CCCC2)cc1F (centres unmarked) [Example 54, 2-(4-(ethylsulfonamidomethyl)-3-fluorophenyl)-N-((2-(pyrrolidin-1-yl)-6-(trifluoromethyl)pyridin-3-yl)methyl)propanamide] | –
10 | 85 | NS(=O)(=O)NCc1ccc(NC(=O)NCc2ccc(C(F)(F)F)nc2N2CCCC2)cc1 [Example 57, 1-{[2-pyrrolidin-1-yl-6-(trifluoromethyl)pyridin-3-yl]methyl}-3-{4-[(sulfamoylamino)methyl]phenyl}urea] | –
11 | 4 | CC1CCN(c2nc(C(F)(F)F)ccc2CNC(=O)C(C)c2ccc(CNS(N)(=O)=O)c(F)c2)CC1 (centres unmarked) [Example 64, 2-(3-fluoro-4-((sulfamoylamino)methyl)phenyl)-N-((2-(4-methylpiperidin-1-yl)-6-(trifluoromethyl)pyridin-3-yl)methyl)propanamide] | –
